Laboratory results as given in article PMC6770006, “Novel Heat Shock Protein 90 Inhibitors Suppress P-Glycoprotein Activity and Overcome Multidrug Resistance in Cancer Cells” (International Journal of Molecular Sciences, 2019).

Assays:
MRC-5 cells = assay: MTT assay, normal embryonic lung fibroblasts MRC-5; format: cell-based, human; settings: for IC50: Homo sapiens, MRC5, MTT, 72 h, normal fibroblasts, read-out: Cell growth inhibition IC50, MRC-5; for Relative Selectivity: IC50 in MRC-5 cells / average IC50 of four cancer cell lines
Procedure: (§1) A series of 3-aryl-naphtho[2,3-d]isoxazole-4,9-diones were synthesized (Scheme 1, Figure 1) and their growth inhibition activity was tested in vitro on human non-small cell lung carcinoma NCI-H460, colorectal carcinoma DLD1 and their corresponding MDR cells (NCI-H460/R and DLD1-TxR, respectively), as well as normal embryonic lung fibroblasts MRC-5. The differences in cell growth inhibition between cancer and normal cells obtained by the MTT assay after 72 h treatment are presented in Table 1. The effect of compounds is presented as IC50 values that correspond to the 50% of cell growth inhibition.
(§2) Cell viability was assessed by the MTT assay (AppliChem GmbH, Darmstadt, Germany). Cells grown in 25 cm^2 tissue flasks were trypsinized and 1000 cells/well were seeded into flat-bottomed 96-well tissue culture plates and incubated overnight. Subsequently, the cells were treated with increasing concentrations of Hsp90 inhibitors for 72 h: compound 3 (0.1–2.5 µM), compound 4 (0.25–5 µM), compound 5 (0.5–25 µM), compound 6 (50–1000 nM), compound 7 (10–250 nM), compound 8 (0.25–5 µM), compound 9 (10–250 nM), compound 10 (0.5–25 µM), compound 13 (0.5–10 µM), compound 14 (1–25 µM), and compound 15 (10–250 nM). […] After treatment, MTT was added to each well in a final concentration of 0.2 mg/mL for 4 h. Formazan product was dissolved in 200 µl of DMSO, and the absorbance was measured at 540 nm using an automatic LKB 5060-006 Micro Plate Reader (Vienna, Austria). IC50 value was defined as a concentration of the drug that inhibited cell growth by 50% and was calculated by nonlinear regression analysis using GraphPad Prism 6.0 for Windows (La Jolla, CA, USA). Relative selectivity towards cancer cells was calculated as a relation between IC50 value obtained in MRC-5 cells and an average IC50 value from four tested cancer cell lines.

DLD1-TxR cells = assay: MTT assay, cell growth inhibition, DLD1-TxR (MDR); format: cell-based, human; settings: 72 h; for IC50: Homo sapiens, MDR cells
Procedure: as §1
(§3) Human colorectal carcinoma (DLD1), non-small cell lung carcinoma (NCI-H460), and normal embryonic lung fibroblast (MRC-5) cell lines were purchased from the American Type Culture Collection, Rockville, MD. P-gp overexpressing multidrug resistant DLD1-TxR cells were selected by continuous exposure to stepwise increasing concentrations of paclitaxel from DLD1 cells, while NCI-H460/R cells were selected from NCI-H460 cells after DOX selective pressure. MDR cancer cell lines, DLD1-TxR and NCI-H460/R, and their sensitive counterparts were maintained in RPMI 1640 medium supplemented with 10% FBS, 2 mM L-glutamine, and 10,000 U/mL penicillin, 10 mg/mL streptomycin, 25 mg/mL amphotericin B solutions. MRC-5 cells were cultured in DMEM supplemented with 10% FBS, 4 g/L glucose, 2 mM L-glutamine and 5000 U/mL penicillin, 5 mg/mL streptomycin solution. All cell lines were sub-cultured at 72 h intervals using 0.25% trypsin/EDTA and seeded into a fresh medium at 8000 cells/cm^2. All cell lines were maintained at 37 °C in a humidified 5% CO2 atmosphere.
as §2

P-gp = P-gp (Homo sapiens, UniProt P08183); assay: Rhodamine 123 accumulation assay (P-gp activity, flow cytometry); format: cell-based; set-up: P-gp overexpressing multidrug resistant DLD1-TxR cells were selected by continuous exposure to stepwise increasing concentrations of paclitaxel from DLD1 cells; endogenous in cells; host or cells: NCI-H460/R and DLD1-TxR (drug-selected MDR human cancer cells); settings: 30 min, Figure 3a
Procedure: To study the effect of Hsp90 inhibitors on P-gp activity in MDR cancer cells, intracellular accumulation of the P-gp substrate rhodamine 123 (Rho 123) was analyzed by flow cytometry after 30 min treatment (Figure 3a). A well-known inhibitor of P-gp activity, tariquidar (TQ), was included as a positive control.
The accumulation of Rho 123, a fluorescent P-gp substrate, was measured by flow cytometry. The intensity of the fluorescence is proportional to Rho 123 accumulation in the cell. All cell lines were seeded in adherent 6-well plates and grown overnight. DLD1-TxR and NCI-H460/R cells were treated for 30 min with the following concentrations of Hsp90 inhibitors: 500 nM compound 3, 1 µM compound 4, 10 µM compound 5, 500 nM compound 6, 500 nM compound 7, 1 µM compound 8, 500 nM compound 9, 1 µM compound 10, 1 µM compound 13, 10 µM compound 14, 100 nM compound 15. TQ (10 nM) was used as a positive control for Rho 123 accumulation. Rho 123 (5 μM) was simultaneously added with the investigated compounds and the cells were incubated at 37 °C in 5% CO2 for 30 min. The cells were then trypsinized, pelleted by centrifugation, washed with PBS and placed in ice-cold PBS. The samples were kept on ice in the dark until the analysis on CyFlow Space Partec flow cytometer (Sysmex Partec GmbH, Görlitz, Germany). The fluorescence of Rho 123 was detected on fluorescence channel 1 (FL1-H) at 530 nm. A minimum of 10,000 events were collected for each sample and the obtained results were analyzed using Summit software.

NCI-H460 cells = assay: MTT assay, cell growth inhibition, NCI-H460; format: cell-based; settings: Homo sapiens, 72 h, three independent experiments
Procedure: as §1, §2

Hsp90 = test system: Hsp90; set-up: method as in PMID 22538015; settings: read-out: Hsp90 Affinity binding; cited from earlier work
NCI-H460/R cells = assay: MTT assay, cell growth inhibition, NCI-H460/R (MDR); format: cell-based, human; settings: for Efficacy in MDR NCI-H460/R cells compared with sensitive NCI-H460: 72 h; for IC50: Homo sapiens, NCI-H460, 72 h, MDR cells
Procedure: as §1, §3, §2

[1] = test system: NCI-H460, NCI-H460/R, DLD1, DLD1-TxR cells; assay: MTT assay, grouping of inhibitors by IC50 over the cancer cell lines; format: cell-based; settings: Homo sapiens, Figure 2b, read-out: IC50 values (grouping for Pearson correlation)
Procedure: When the IC50 values obtained by the MTT assay were compared to Hsp90 affinity binding IC50 values (Table 1), a positive Pearson correlation (r > 0.5) was found for all cancer cell lines (Figure 2b).
as §2

DLD1 cells = assay: MTT assay, cell growth inhibition, DLD1; format: cell-based; settings: Homo sapiens, DLD-1, 72 h
Procedure: as §1, §2

P-gp expression = assay: Flow cytometric analysis of P-gp expression; format: cell-based, human; settings: 72 h; for Change in P-gp expression, DLD1 / Change in P-gp expression, NCI-H460: 5 µM 5, 200 nM 7, 100 nM 9, 10 nM TQ, 50 nM DOX, 50 nM PTX
Procedure: P-glycoprotein expression level in NCI-H460, NCI-H460/R, DLD1, and DLD1-TxR and cells was measured by flow cytometry. All cell lines were seeded in adherent 6-well plates and treated with Hsp90 inhibitors for 72 h at the following concentrations: 5 µM compound 5, 200 nM compound 7, 100 nM compound 9 (NCI-H460 and DLD1), and 10 µM compound 5, 500 nM compound 7, 500 nM compound 9 (NCI-H460/R and DLD1-TxR). Cells were also treated with 10 nM TQ, a non-competitive P-gp inhibitor, which served as a positive control. In addition, sensitive cells (NCI-H460 and DLD1) were treated with 50 nM DOX and 50 nM PTX that served as positive controls for the induction of P-gp expression. Then, cells were collected by trypsinization, washed with PBS, and directly immunostained by FITC-conjugated anti-P-gp antibody according to the manufacturer’s protocol. The samples were kept in the dark until the analysis on CyFlow Space Partec flow cytometer (Sysmex Partec GmbH, Görlitz, Germany). The fluorescence of FITC-conjugated anti-P-gp was detected on fluorescence channel 1 (FL1-H) at 530 nm. A minimum of 10,000 events were collected for each sample (the gate excluded cell debris and dead cells) and the obtained results were analyzed with Summit software v4.3 (Dako Colorado Inc., Fort Collins, CO, USA).

[2] = 10 µM 5, 500 nM 7, 500 nM 9, 10 nM TQ

P-gp, sequence (P08183 whole entry): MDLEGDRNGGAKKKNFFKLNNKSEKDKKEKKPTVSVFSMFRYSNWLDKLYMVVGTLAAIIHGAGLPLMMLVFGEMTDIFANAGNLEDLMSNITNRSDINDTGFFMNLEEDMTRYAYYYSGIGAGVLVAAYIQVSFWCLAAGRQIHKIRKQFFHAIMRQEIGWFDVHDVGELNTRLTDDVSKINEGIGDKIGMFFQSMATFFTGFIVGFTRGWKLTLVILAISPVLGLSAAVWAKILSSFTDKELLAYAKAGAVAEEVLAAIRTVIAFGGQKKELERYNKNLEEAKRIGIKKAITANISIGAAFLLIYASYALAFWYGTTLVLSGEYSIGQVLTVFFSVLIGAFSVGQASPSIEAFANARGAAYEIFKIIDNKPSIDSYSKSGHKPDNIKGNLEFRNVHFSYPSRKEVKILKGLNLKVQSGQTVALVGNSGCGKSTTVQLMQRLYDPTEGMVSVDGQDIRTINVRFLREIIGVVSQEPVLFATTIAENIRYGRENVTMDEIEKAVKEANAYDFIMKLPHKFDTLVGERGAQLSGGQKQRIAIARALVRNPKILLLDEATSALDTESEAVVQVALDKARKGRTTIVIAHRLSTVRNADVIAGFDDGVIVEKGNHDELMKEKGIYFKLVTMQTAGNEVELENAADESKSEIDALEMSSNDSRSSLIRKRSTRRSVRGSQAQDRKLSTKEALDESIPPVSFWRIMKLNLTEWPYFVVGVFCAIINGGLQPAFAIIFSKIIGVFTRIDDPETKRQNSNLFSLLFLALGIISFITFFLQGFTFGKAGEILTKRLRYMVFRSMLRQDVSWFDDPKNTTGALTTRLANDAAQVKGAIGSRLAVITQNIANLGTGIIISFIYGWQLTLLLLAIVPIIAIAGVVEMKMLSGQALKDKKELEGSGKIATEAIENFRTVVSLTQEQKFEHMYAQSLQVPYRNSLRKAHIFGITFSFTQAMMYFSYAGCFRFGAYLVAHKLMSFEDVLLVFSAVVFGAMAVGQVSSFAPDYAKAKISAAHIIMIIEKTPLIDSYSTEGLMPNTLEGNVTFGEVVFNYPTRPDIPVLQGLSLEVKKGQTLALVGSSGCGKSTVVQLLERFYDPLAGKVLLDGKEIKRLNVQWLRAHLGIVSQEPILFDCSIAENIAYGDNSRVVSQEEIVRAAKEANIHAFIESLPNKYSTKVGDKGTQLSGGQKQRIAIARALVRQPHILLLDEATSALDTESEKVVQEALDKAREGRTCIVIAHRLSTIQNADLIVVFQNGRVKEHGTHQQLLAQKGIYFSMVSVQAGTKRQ

| SMILES | IC50 (MRC-5 cells) [nM] | Relative Selectivity (MRC-5 cells) | Efficacy in MDR DLD1-TxR cells compared with sensitive DLD1 (DLD1-TxR cells) | IC50 (DLD1-TxR cells) [nM] | P-gp activity / Rho 123 accumulation (P-gp; MDR NCI-H460/R and DLD1-TxR cells, one concentration per compound (100 nM-10 µM)) | IC50 (NCI-H460 cells) [nM] | IC50 (Hsp90) [nM] | Efficacy in MDR NCI-H460/R cells compared with sensitive NCI-H460 (NCI-H460/R cells) | IC50 (NCI-H460/R cells) [nM] | IC50 [1] [nM] | IC50 (DLD1 cells) [nM] | P-gp activity / Rho 123 accumulation in DLD1-TxR (P-gp; DLD1-TxR cells) | Change in P-gp expression, DLD1 (P-gp expression) | Change in P-gp expression, NCI-H460 (P-gp expression) | Change in P-gp expression, DLD1-TxR (P-gp expression; [2]) | Change in P-gp expression, NCI-H460/R (P-gp expression; [2]) |
| --- | --- | --- | --- | --- | --- | --- | --- | --- | --- | --- | --- | --- | --- | --- | --- | --- |
| O=C1c2ccccc2C(=O)c2c(-c3ccc(OCCN4CCOCC4)cc3)noc21 [Compound 6] | 4740 ± 473 | 8.79 | evaded resistance | 439 ± 10 | did not have any positive effects | 807 ± 35 | 1200 | collateral sensitivity | 472 ± 18 | < 1000 | 439 ± 6 |  |  |  |  |  |
| COc1cccc2c1C(=O)c1c(-c3cc[n+](Cc4ccccc4)cc3)noc1C2=O [Compound 14] | 53300 ± 1730 | 5.00 | further compromised in the presence of MDR phenotype in both cell lines | 10600 ± 270 |  | 978 ± 18 | 340 | further compromised in the presence of MDR phenotype in both cell lines | 23600 ± 470 | ≥ 1000 | 7450 ± 212 | partially restored |  |  |  |  |
| COc1cc2c(cc1OC)CN(CCc1ccc(NC(=O)c3cc(OC)c(OC)cc3NC(=O)c3cnc4ccccc4c3)cc1)CC2 [TQ, tariquidar] |  |  |  |  |  |  |  |  |  |  |  |  | increased P-gp expression | did not influence the P-gp expression | increased P-gp expression | did not influence the P-gp expression |
| CC(=O)O[C@H]1C(=O)[C@@]2(C)[C@H]([C@H](OC(=O)c3ccccc3)[C@]3(O)C[C@H](OC(=O)[C@H](O)[C@@H](NC(=O)c4ccccc4)c4ccccc4)C(C)=C1C3(C)C)[C@]1(OC(C)=O)CO[C@@H]1C[C@@H]2O [PTX, paclitaxel] |  |  |  |  |  |  |  |  |  |  |  |  | significantly increased P-gp expression | significantly increased P-gp expression |  |  |
